# Assay results published in patent publication EP4563146A1 (IRBM S.P.A., priority 2023, dated 2025).
# Test system: ZIKV replicon
# Assay: ZIKV replication inhibition assay (NanoLuc replicon in Vero cells)
# Conditions: Zika virus, Vero, 72 h, read-out: ZIKA Cell_Nanoluc
row,Structure (SMILES),EC50 [nM]
1,COc1ncc(-c2ccc(C[n+]3cc([N-]C(=O)Nc4cc(NC(=O)CC5CCCCC5)cc(C(F)(F)F)c4)on3)cc2)c(C)n1 [Example 8],1000 to 20000
2,COc1ncc(-c2ccc(C[n+]3cc([N-]C(=O)Nc4cc(NC(C)=O)cc(C(F)(F)F)c4)on3)cc2)c(C)n1 [Example 11],1000 to 20000
3,COc1ncc(-c2ccc(C[n+]3cc([N-]C(=O)Nc4cc(NC(=O)C5CCCC5)cc(C(F)(F)F)c4)on3)cc2)c(C)n1 [Example 18],100 to 1000
4,O=C([N-]c1c[n+](Cc2ccccn2)no1)Nc1cc(NC(=O)c2ccc(CN3CCOCC3)o2)cc(C(F)(F)F)c1 [Example 30],1000 to 20000
5,O=C([N-]c1c[n+](Cc2ccccn2)no1)Nc1cc(NC(=O)c2cccc(Oc3ccccc3)c2)cc(C(F)(F)F)c1 [Example 31],1000 to 20000
6,CC(C(=O)Nc1cc(NC(=O)[N-]c2c[n+](Cc3ccccn3)no2)cc(C(F)(F)F)c1)c1ccccc1 (stereo not shown) [Example 32],100 to 1000
7,Cc1oc(-c2ccccc2)nc1CC(=O)Nc1cc(NC(=O)[N-]c2c[n+](Cc3ccccn3)no2)cc(C(F)(F)F)c1 [Example 33],1000 to 20000
8,O=C([N-]c1c[n+](Cc2ccccn2)no1)Nc1cc(NC(=O)c2ccnn2-c2ccccc2)cc(C(F)(F)F)c1 [Example 34],1000 to 20000
9,O=C([N-]c1c[n+](Cc2ccccn2)no1)Nc1cc(NC(=O)c2cnn(Cc3ccccc3)c2)cc(C(F)(F)F)c1 [Example 35],1000 to 20000
10,O=C(Cc1c[nH]c2cccnc12)Nc1cc(NC(=O)[N-]c2c[n+](Cc3ccccn3)no2)cc(C(F)(F)F)c1 [Example 36],1000 to 20000
11,N#Cc1ccc2nc(C(=O)Nc3cc(NC(=O)[N-]c4c[n+](Cc5ccccn5)no4)cc(C(F)(F)F)c3)cn2c1 [Example 37],1000 to 20000
12,CN1Cc2cc(C(=O)Nc3cc(NC(=O)[N-]c4c[n+](Cc5ccccn5)no4)cc(C(F)(F)F)c3)sc2C1 [Example 39],1000 to 20000
13,Cn1ccc(CC(=O)Nc2cc(NC(=O)[N-]c3c[n+](Cc4ccccn4)no3)cc(C(F)(F)F)c2)n1 [Example 40],1000 to 20000

# Same assay, conditions: Zika virus, Vero, 72 h, read-out: ZIKA Cell_Nanoluc, Vero cells with stable ZIKV replicon, 72 h, Nano-Glo readout
row,Structure (SMILES),EC50 [nM]
1,"COc1ncc(-c2ccc(C[n+]3cc([N-]C(=O)Nc4cc(NS(=O)(=O)CC5CCCCC5)cc(C(F)(F)F)c4)on3)cc2)c(C)n1 [Example 2, ((3-((Cyclohexylmethyl)sulfonamido)-5-(trifluoromethyl)phenyl)carbamoyl)(3-(4-(2-methoxy-4-methylpyrimidin-5-yl)benzyl)-1,2,3-oxadiazol-3-ium-5-yl)amide]",> 20000
2,"COc1ncc(-c2ccc(C[n+]3cc([N-]C(=O)Nc4cc(N)cc(C(F)(F)F)c4)on3)cc2)c(C)n1 [Example 3, ((3-Amino-5-(trifluoromethyl)phenyl)carbamoyl)(3-(4-(2-methoxy-4-methylpyrimidin-5-yl)benzyl)-1,2,3-oxadiazol-3-ium-5-yl)amide]",100 to 1000
3,"C[n+]1cc([N-]C(=O)Nc2cc(NC(=O)Cc3ccccc3)cc(C(F)(F)F)c2)on1 [Example 4, (3-Methyl-1,2,3-oxadiazol-3-ium-5-yl)((3-(2-phenylacetamido)-5-(trifluoromethyl)phenyl)carbamoyl)amide]",1000 to 20000
4,"NCc1ccccc1-c1ccc(C[n+]2cc([N-]C(=O)Nc3cc(NC(=O)Cc4ccccc4)cc(C(F)(F)F)c3)on2)nc1 [Example 5, (3-((5-(2-(Aminomethyl)phenyl)pyridin-2-yl)methyl)-1,2,3-oxadiazol-3-ium-5-yl)((3-(2-phenylacetamido)-5-(trifluoromethyl)phenyl)carbamoyl)amide]",1000 to 20000
5,"Cn1cncc1-c1ccc(C[n+]2cc([N-]C(=O)Nc3cc(NC(=O)Cc4ccccc4)cc(C(F)(F)F)c3)on2)nc1 [Example 6, (3-((5-(1-Methyl-1H-imidazol-5-yl)pyridin-2-yl)methyl)-1,2,3-oxadiazol-3-ium-5-yl)((3-(2-phenylacetamido)-5-(trifluoromethyl)phenyl)carbamoyl)amide]",1000 to 20000
6,"O=C(Cc1ccccc1)Nc1cc(NC(=O)[N-]c2c[n+](Cc3ccccn3)no2)cc(C(F)(F)F)c1 [Example 7, ((3-(2-Phenylacetamido)-5-(trifluoromethyl)phenyl)carbamoyl)(3-(pyridin-2-ylmethyl)-1,2,3-oxadiazol-3-ium-5-yl)amide]",100 to 1000
7,"COc1ncc(-c2ccc(C[n+]3cc([N-]C(=O)Nc4cc(NC(=O)CCc5ccccc5)cc(C(F)(F)F)c4)on3)cc2)c(C)n1 [Example 9, (3-(4-(2-Methoxy-4-methylpyrimidin-5-yl)benzyl)-1,2,3-oxadiazol-3-ium-5-yl)((3-(3-phenylpropanamido)-5-(trifluoromethyl)phenyl)carbamoyl)amide]",100 to 1000
8,"COc1ncc(-c2ccc(C[n+]3cc([N-]C(=O)Nc4cc(NS(=O)(=O)Cc5ccccc5)cc(C(F)(F)F)c4)on3)cc2)c(C)n1 [Example 10, (3-(4-(2-Methoxy-4-methylpyrimidin-5-yl)benzyl)-1,2,3-oxadiazol-3-ium-5-yl)((3-((phenylmethyl)sulfonamido)-5-(trifluoromethyl)phenyl)carbamoyl)amide]",100 to 1000
9,"O=C(Cc1ccccc1)Nc1cc(NC(=O)[N-]c2c[n+](Cc3ccc(Br)cn3)no2)cc(C(F)(F)F)c1 [Example 12, (3-((5-Bromopyridin-2-yl)methyl)-1,2,3-oxadiazol-3-ium-5-yl)((3-(2-phenylacetamido)-5-(trifluoromethyl)phenyl)carbamoyl)amide]",100 to 1000
10,"COc1ncc(-c2ccc(C[n+]3cc([N-]C(=O)Nc4cc(NC(=O)Cc5ccccc5)cc(C(F)(F)F)c4)on3)nc2)c(C)n1 [Example 13, (3-((5-(2-Methoxy-4-methylpyrimidin-5-yl)pyridin-2-yl)methyl)-1,2,3-oxadiazol-3-ium-5-yl)((3-(2-phenylacetamido)-5-(trifluoromethyl)phenyl)carbamoyl)amide]",100 to 1000
11,"O=C(Cc1ccccc1)Nc1cc(NC(=O)[N-]c2c[n+](Cc3ccc(-c4cccc5c4CNC5)cn3)no2)cc(C(F)(F)F)c1 [Example 14, (3-((5-(Isoindolin-4-yl)pyridin-2-yl)methyl)-1,2,3-oxadiazol-3-ium-5-yl)((3-(2-phenylacetamido)-5-(trifluoromethyl)phenyl)carbamoyl)amide]",1000 to 20000
12,"COc1ccc(CC(=O)Nc2cc(NC(=O)[N-]c3c[n+](Cc4ccc(-c5cnc(OC)nc5C)cc4)no3)cc(C(F)(F)F)c2)cc1 [Example 16, (3-(4-(2-Methoxy-4-methylpyrimidin-5-yl)benzyl)-1,2,3-oxadiazol-3-ium-5-yl)((3-(2-(4-methoxyphenyl)acetamido)-5-(trifluoromethyl)phenyl)carbamoyl)amide]",1000 to 20000
13,"COc1ncc(-c2ccc(C[n+]3cc([N-]C(=O)Nc4cc(NC(=O)Cc5cccnc5)cc(C(F)(F)F)c4)on3)cc2)c(C)n1 [Example 19, (3-(4-(2-Methoxy-4-methylpyrimidin-5-yl)benzyl)-1,2,3-oxadiazol-3-ium-5-yl)((3-(2-(pyridin-3-yl)acetamido)-5-(trifluoromethyl)phenyl)carbamoyl)amide]",1000 to 20000
14,"COc1ncc(-c2ccc(C[n+]3cc([N-]C(=O)Nc4cc(NC(=O)Cc5ccccc5Cl)cc(C(F)(F)F)c4)on3)cc2)c(C)n1 [Example 21, ((3-(2-(2-Chlorophenyl)acetamido)-5-(trifluoromethyl)phenyl)carbamoyl)(3-(4-(2-methoxy-4-methylpyrimidin-5-yl)benzyl)-1,2,3-oxadiazol-3-ium-5-yl)amide]",100 to 1000
15,"Cc1noc(C)c1-c1ccc([C@H](CN)[n+]2cc([N-]C(=O)Nc3cc(NC(=O)Cc4ccccc4)cc(C(F)(F)F)c3)on2)cc1 [Example 23, (R)-(3-(2-Amino-1-(4-(3,5-dimethylisoxazol-4-yl)phenyl)ethyl)-1,2,3-oxadiazol-3-ium-5-yl)((3-(2-phenylacetamido)-5-(trifluoromethyl)phenyl)-carbamoyl)amide]",1000 to 20000
16,"Cc1noc(C)c1-c1ccc([C@@H](CN)[n+]2cc([N-]C(=O)Nc3cc(NC(=O)Cc4ccccc4)cc(C(F)(F)F)c3)on2)cc1 [Example 24, (S)-(3-(2-Amino-1-(4-(3,5-dimethylisoxazol-4-yl)phenyl)ethyl)-1,2,3-oxadiazol-3-ium-5-yl)((3-(2-phenylacetamido)-5-(trifluoromethyl)phenyl)carbamoyl)amide]",1000 to 20000
17,"Cc1nc(N)ncc1-c1ccc(C[n+]2cc([N-]C(=O)Nc3cc(NC(=O)Cc4ccccc4)cc(C(F)(F)F)c3)on2)nc1 [Example 25, (3-((5-(2-Amino-4-methylpyrimidin-5-yl)pyridin-2-yl)methyl)-1,2,3-oxadiazol-3-ium-5-yl)((3-(2-phenylacetamido)-5-(trifluoromethyl)phenyl)carbamoyl)amide]",1000 to 20000
18,"NCc1ccc(CC(=O)Nc2cc(NC(=O)[N-]c3c[n+](Cc4ccccn4)no3)cc(C(F)(F)F)c2)cc1 [Example 27, ((3-(2-(4-(Aminomethyl)phenyl)acetamido)-5-(trifluoromethyl)phenyl)carbamoyl)(3-(pyridin-2-ylmethyl)-1,2,3-oxadiazol-3-ium-5-yl)amide]",1000 to 20000
19,"O=C(Cc1ccccc1)Nc1cc(NC(=O)[N-]c2c[n+](Cc3ccccc3)no2)cc(C(F)(F)F)c1 [Example 28, (3-Benzyl-1,2,3-oxadiazol-3-ium-5-yl)((3-(2-phenylacetamido)-5-(trifluoro-methyl)phenyl)carbamoyl)amide]",1000 to 20000
20,"O=C([N-]c1c[n+](Cc2ccccn2)no1)Nc1cc(NC(=O)c2ccc3[nH]cnc3c2)cc(C(F)(F)F)c1 [Example 29, ((3-(1H Benzo[d]imidazole-5-carboxamido)-5-(trifluoromethyl)phenyl)-carbamoyl)(3-(pyridin-2-ylmethyl)-1,2,3-oxadiazol-3-ium-5-yl)amide]",1000 to 20000
21,"O=C([N-]c1c[n+](Cc2ccccn2)no1)Nc1cc(NC(=O)C2CCCc3cn[nH]c32)cc(C(F)(F)F)c1 (stereo not shown) [Example 38, (3-(Pyridin-2-ylmethyl)-1,2,3-oxadiazol-3-ium-5-yl)((3-(4,5,6,7-tetrahydro-1H-indazole-7-carboxamido)-5-(trifluoromethyl)phenyl)carbamoyl)amide]",1000 to 20000
